Target: Rv2887 (Mycobacterium tuberculosis, UniProt P9WME9)
Test: biochemical

Chain of Rv2887 (P9WME9 whole entry): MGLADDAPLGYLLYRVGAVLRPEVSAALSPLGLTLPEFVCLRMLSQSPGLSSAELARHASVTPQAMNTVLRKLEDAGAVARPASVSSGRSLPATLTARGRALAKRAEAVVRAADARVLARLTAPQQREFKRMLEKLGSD

SMILES	Kd
COC(=O)[C@@H]1CCC(=O)N1Cc1cc2ccc(OC)cc2c2cc(OC)c(OC)cc12 [PP1S]	274 µM
CCCCOc1ccc2cc(CN3C(=O)CC[C@H]3C(=O)OC)c3cc(OC)c(OC)cc3c2c1 [PP2S]	250 µM

Reference: paper PMC9598822, “Increased Susceptibility of Mycobacterium tuberculosis to Ethionamide by Expressing PPs-Induced Rv0560c” (Antibiotics, 2022)
